Test systems include NCI-H460 lung; NCI-H522 lung; OVCAR-4 ovarian; OVCAR-3 ovarian; SNB-19 CNS; HOP-62 NSCLC; KM12 colon; RXF 393 renal; T-47D breast; HL-60(TB) leukemia; UO-31 renal; SF-268 CNS; HS 578T breast; MDA-MB-435; BT-549 breast; M14 melanoma; RPMI-8226 leukemia; MOLT-4 leukemia.
What all share (assay): NCI anticancer screen, dose series, 48 h

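Grown in 96-well plates, cells were treated for 48 hours with each compound at five concentrations. Insufficient inhibition: endpoint recorded as highest concentration tested. TGI: concentration producing complete growth inhibition.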 A value given as a limit tells only on which side of the number the result lay.

Take `CC(C)CCC[C@@H](C)[C@H]1CCC2C3CC=C4C[C@@H](Oc5c6ccccc6nc6ccccc56)CCC4C3CCC21` (stereo partly drawn): the TGI in the assay with NCI-H460 lung, with NCI-H522 lung, in the assay on OVCAR-4 ovarian, with OVCAR-3 ovarian, in the assay with SNB-19 CNS and in the assay with HOP-62 NSCLC was greater than 50 µM throughout. Moreover, the TGI in the assay with KM12 colon, in the assay on RXF 393 renal, in the assay on T-47D breast, with HL-60(TB) leukemia, in the assay on UO-31 renal and with SF-268 CNS was greater than 50 µM throughout. Also, the TGI in the assay on HS 578T breast, with MDA-MB-435, with BT-549 breast and in the assay with M14 melanoma was greater than 50 µM throughout.

`[Se]=P(c1ccccc1)(c1ccccc1)c1ccc(C(c2ccccc2)=P(c2ccccc2)(c2ccccc2)c2ccccc2)cc1`: the TGI with NCI-H460 lung was 10.9 µM; in the assay with NCI-H522 lung, 1.7 µM; with OVCAR-4 ovarian it was greater than 33.1 µM; with OVCAR-3 ovarian it was 4.22 µM; with SNB-19 CNS, 16 µM; with HOP-62 NSCLC, 4.33 µM. Moreover, the TGI is 1.8 µM with KM12 colon; 10.9 µM in the assay with RXF 393 renal; 7.07 µM with T-47D breast; 1.06 µM in the assay on HL-60(TB) leukemia; 20.1 µM in the assay on UO-31 renal; 9.26 µM in the assay on SF-268 CNS. The TGI in the assay on HS 578T breast is 5.24 µM; in the assay on MDA-MB-435, 3.46 µM; in the assay on BT-549 breast, 6.56 µM; in the assay with RPMI-8226 leukemia, 8.05 µM; with MOLT-4 leukemia, 12.6 µM; in the assay with M14 melanoma, 24.5 µM.

For `Cc1ccc(OCC2OC(n3cnc4nc(Cl)nc(Cl)c43)CC2Oc2ccc(C)cc2)cc1` (stereo not drawn), the TGI was 20.2 µM in the assay on NCI-H460 lung; 4.31 µM with NCI-H522 lung; 56.1 µM with OVCAR-4 ovarian; 18.9 µM in the assay with OVCAR-3 ovarian; 30.1 µM in the assay with SNB-19 CNS; 34.8 µM in the assay on HOP-62 NSCLC. The TGI with KM12 colon turned out to be 23.7 µM; in the assay on RXF 393 renal, 15.7 µM; in the assay with T-47D breast, 30.7 µM; in the assay with HL-60(TB) leukemia, 3.94 µM; in the assay with UO-31 renal it was 22 µM; in the assay with SF-268 CNS it was 23.4 µM. The TGI came out at 54.6 µM with HS 578T breast; 24.3 µM with MDA-MB-435; 30.4 µM in the assay on BT-549 breast; 9.35 µM with RPMI-8226 leukemia; 5.76 µM in the assay with MOLT-4 leukemia; 20.5 µM in the assay on M14 melanoma.

Consider `O=c1[nH]nc(-c2ccccc2)n1/N=C/c1ccncc1`, for which the TGI with NCI-H460 lung, in the assay with NCI-H522 lung, in the assay with OVCAR-4 ovarian, in the assay on OVCAR-3 ovarian, with SNB-19 CNS and with HOP-62 NSCLC was greater than 100 µM throughout. In addition, the TGI in the assay on KM12 colon, in the assay on RXF 393 renal, in the assay with T-47D breast, in the assay with HL-60(TB) leukemia, in the assay on UO-31 renal and with SF-268 CNS was greater than 100 µM throughout. In addition, the TGI with HS 578T breast is 97.3 µM; with MDA-MB-435, greater than 100 µM; in the assay with BT-549 breast, greater than 100 µM; in the assay on RPMI-8226 leukemia it was greater than 100 µM; in the assay on MOLT-4 leukemia, greater than 100 µM; in the assay with M14 melanoma it was greater than 100 µM.

For `O=C1C(NCCc2ccc(O)c(O)c2)=CC(=O)c2ncccc21`, the TGI was determined as 29.4 µM in the assay on NCI-H460 lung; 7.31 µM in the assay with NCI-H522 lung; 50.9 µM in the assay on OVCAR-4 ovarian; 7.77 µM in the assay on OVCAR-3 ovarian; 45.8 µM with SNB-19 CNS; 49.9 µM in the assay on HOP-62 NSCLC. Besides, the TGI in the assay with KM12 colon worked out at 30.5 µM; in the assay with RXF 393 renal it was 28.4 µM; in the assay on T-47D breast, 65.3 µM; with HL-60(TB) leukemia, 60.3 µM; in the assay on UO-31 renal it was 24.4 µM; in the assay on SF-268 CNS, 66.5 µM. The TGI with HS 578T breast was 45.2 µM; in the assay on MDA-MB-435, 3.28 µM; with BT-549 breast, 19.6 µM; in the assay on RPMI-8226 leukemia, greater than 70 µM; in the assay with MOLT-4 leukemia, 34.6 µM; in the assay on M14 melanoma it was 40.5 µM.

Turning to `CCCCCCCCCCCCCCCCCCNc1ccn(C2OC(COP(=O)(O)OCC3CCC(n4cnc5c(=O)[nH]cnc54)O3)C(O)C2O)c(=O)n1` (stereo not drawn), the TGI with NCI-H460 lung, in the assay on NCI-H522 lung, in the assay with OVCAR-4 ovarian, in the assay on OVCAR-3 ovarian, with SNB-19 CNS and with HOP-62 NSCLC was greater than 100 µM in each case. Further, the TGI with KM12 colon, in the assay with RXF 393 renal, in the assay with T-47D breast, in the assay with UO-31 renal, with SF-268 CNS and in the assay with HS 578T breast was greater than 100 µM throughout. Also, the TGI in the assay with MDA-MB-435, in the assay on BT-549 breast, with MOLT-4 leukemia and with M14 melanoma was greater than 100 µM in each case.

As to `CCOC(=O)c1cc(C(=O)c2ccccc2)n2nc(-c3ccc(Cl)cc3)ccc12`, the TGI in the assay on NCI-H460 lung turned out to be 50.9 µM; in the assay on NCI-H522 lung it was 43.7 µM; with OVCAR-4 ovarian it was 37.2 µM; with SNB-19 CNS, 34.8 µM; in the assay on HOP-62 NSCLC, 34.8 µM; with KM12 colon, 53.5 µM. Further, the TGI was 32.7 µM in the assay on RXF 393 renal; 92.3 µM with T-47D breast; greater than 100 µM in the assay on HL-60(TB) leukemia; 27.1 µM with UO-31 renal; 27.6 µM with SF-268 CNS; 41.5 µM in the assay with HS 578T breast. Besides, the TGI was greater than 100 µM with MDA-MB-435; 35.4 µM in the assay on BT-549 breast; greater than 100 µM in the assay with RPMI-8226 leukemia; greater than 100 µM with MOLT-4 leukemia; 90.7 µM with M14 melanoma.

Consider `c1ccc(-c2sc(-c3cccs3)cc2Cc2cccs2)cc1`, for which the TGI in the assay on NCI-H460 lung, in the assay on NCI-H522 lung, in the assay on OVCAR-4 ovarian, with SNB-19 CNS, in the assay with HOP-62 NSCLC and in the assay with KM12 colon was greater than 10 µM in each case. Besides, the TGI in the assay on RXF 393 renal, with T-47D breast, in the assay on HL-60(TB) leukemia, in the assay with UO-31 renal, in the assay with SF-268 CNS and with HS 578T breast was greater than 10 µM throughout. Also, the TGI with MDA-MB-435, in the assay on BT-549 breast, with RPMI-8226 leukemia, with MOLT-4 leukemia and in the assay with M14 melanoma was greater than 10 µM in each case.
